biological target: T1, PCP (Phencylidine) receptor (Rattus norvegicus, UniProt P35439); experiment: Binding test against PCP (Phencylidine) receptor, 3H-TCP displacement in rat cortex membrane preparation; set-up: species or system rats (male, Slc-Wistar rat); settings: rat cortex receptor preparation (0.2mg protein/ml), labelled ligand 3H-TCP, 25 °C 30 minutes
T1 construct: the pellets were then suspended in 5mM Tris-HCI buffer and used as the receptor preparation; from tissue; host or cells: rat (male Slc-Wistar) cerebral cortex membrane preparation
Description: Binding test against PCP (Phencylidine) receptor Experiment
After the decapitation of rats (male, Slc-Wistar rat, 10 15 weeks age), the cortex tissues was rapidly removed and each was weighed. The tissue was homogenized with ten-fold amount of ice-cold 50mM Tris-HCI buffer (pH7.4), and centrifuged at 40,000 x g for 10 minutes. This procedure is repeated 3 times. Then the obtained sample was freeze-dried in liquid nitrogen and preserved at -80 ° C On the test day, the sample was thawed at room temperature and centrifuged at 40,000 x g for 10 minutes, the pellets were then suspended in 5mM Tris-HCI buffer and used as the receptor preparation (0.2mg protein/ml). The preparation was added to the mixture containing the labelled ligand (^3H-TCP, […]) and the test drug, and the incubation was carried out (25 °C 30 minutes). The reaction was stopped by rapid filtering through Whatman GF/C filter and the filtrate was washed. Radioactivity on filters was determined by liquid scintillation counter and Ki value was calculated. The Whatmann GF/C filter was soaked in 0.05 % polyethyleneimine. (Literature : Vignon, J. et al., Brain R.,280; 194-197 (1983))

SMILES	Ki [µM]
c1ccc2c(c1)CCc1ccccc1C21CCCN1 [I a-1, Spiro(dibenzosuberane-5,2'-pyrrolidine)]	0.047
CCN1CCCC12c1ccccc1CCc1ccccc12 [I a-3, Spiro[dibenzosuberane-5,2'-(1-ethylpyrrolidine)]]	0.62
Cc1ccc2c(c1)C1(CCCN1)c1ccccc1CC2 (stereo not drawn) [I a-7]	0.031
Cc1ccc2c(c1)C1(CCCN1C)c1ccccc1CC2 (stereo not drawn) [I a-8]	0.51
CCCN1CCCC12c1ccccc1CCc1ccc(C)cc12 (stereo not drawn) [I a-9, Spiro[3-methyldibenzosuberane-5,2'-(1-n-propylpyrrolidine)]]	0.77
CCN1CCCC12c1ccccc1CCc1ccc(C)cc12 (stereo not drawn) [I a-10]	0.25
Cc1ccc2c(c1)C1(CCCN1Cc1ccccc1)c1ccccc1CC2 (stereo not drawn) [I a-11]	> 0.71
Clc1ccc2c(c1)C1(CCCN1)c1ccccc1CC2 (stereo not drawn) [I a-13, Spiro(3-chlorodibenzosuberane-5,2'-pyrrolidine)]	0.023
CCN1CCCC12c1ccccc1CCc1ccc(Cl)cc12 (stereo not drawn) [I a-14]	0.54

Reference: EP0456183B1, “Spiro dibenzosuberane derivatives” (SHIONOGI SEIYAKU KABUSHIKI KAISHA, priority 1990, dated 1991)
